Measurements: PubChem BioAssay AID248 (DTP/NCI, 2004)
Toxic doses and inconclusive results are not listed. Cut-off read from the data, not from the text of the source: active = T/C of 150% or more; inactive = T/C below 125%.

Tested on: L1210 leukemia ip in BDF1 mice, survival T/C
Assay: NCI In Vivo Anticancer Drug Screen. Data for tumor model L1210 Leukemia (intraperitoneal) in B6D2F1 (BDF1) mice
Conditions: endpoint: mean survival time, higher = longer survival
Summary of the method: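 Mice bearing the transplanted tumor received compound or vehicle. Survival of the treated group was divided by that of the vehicle-treated control group to give the ratio.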

[1] = dose: 100.0 mg/kg/injection, schedule: Q04DX002 (ip), vehicle: Klucel (hydroxypropylcellulose) (HPC)
[2] = dose: 200.0 mg/kg/injection, schedule: Q04DX002 (ip), vehicle: Klucel (hydroxypropylcellulose) (HPC)
[3] = dose: 400.0 mg/kg/injection, schedule: Q04DX002 (ip), vehicle: Klucel (hydroxypropylcellulose) (HPC)
[4] = dose: 100.0 mg/kg/injection, schedule: Q04DX002 (ip), vehicle: other
[5] = dose: 200.0 mg/kg/injection, schedule: Q04DX002 (ip), vehicle: other
[6] = dose: 100.0 mg/kg/injection, schedule: Q01DX009 (ip), vehicle: saline with Tween-80
[7] = dose: 200.0 mg/kg/injection, schedule: Q01DX009 (ip), vehicle: saline with Tween-80
[8] = dose: 400.0 mg/kg/injection, schedule: Q01DX009 (ip), vehicle: saline with Tween-80
[9] = dose: 100.0 mg/kg/injection, schedule: Q01DX009 (ip), vehicle: Klucel (hydroxypropylcellulose) (HPC)
[10] = dose: 200.0 mg/kg/injection, schedule: Q01DX009 (ip), vehicle: Klucel (hydroxypropylcellulose) (HPC)
[11] = dose: 400.0 mg/kg/injection, schedule: Q01DX009 (ip), vehicle: Klucel (hydroxypropylcellulose) (HPC)
[12] = dose: 50.0 mg/kg/injection, schedule: Q01DX001 (ip), vehicle: carboxymethylcellulose (CMC)
[13] = dose: 100.0 mg/kg/injection, schedule: Q01DX001 (ip), vehicle: carboxymethylcellulose (CMC)
[14] = dose: 200.0 mg/kg/injection, schedule: Q01DX001 (ip), vehicle: carboxymethylcellulose (CMC)
[15] = dose: 400.0 mg/kg/injection, schedule: Q01DX001 (ip), vehicle: carboxymethylcellulose (CMC)
[16] = dose: 100.0 mg/kg/injection, schedule: Q04DX003 (ip), vehicle: saline
[17] = dose: 200.0 mg/kg/injection, schedule: Q04DX003 (ip), vehicle: saline
[18] = dose: 400.0 mg/kg/injection, schedule: Q04DX003 (ip), vehicle: saline

Measured: T/C

C1=NC(c2ccccc2)=CN(C2CCCCCCC2)C1(c1ccccc1)C1CCCCCCC1 (centres undefined)
inactive: dose: 50.0 mg/kg/injection, schedule: Q04DX002 (ip), vehicle: saline 99 % of control | [1] 95 % of control | dose: 100.0 mg/kg/injection, schedule: Q04DX002 (ip), vehicle: saline 99 % of control | [2] 92 % of control | [3] 92 % of control

CC(=O)OCC1OC2OC(c3ccccc3)=NC2C(OC(C)=O)C1OC(C)=O (centres undefined)
inactive: dose: 22.5 mg/kg/injection, schedule: Q01DX001 (ip), vehicle: carboxymethylcellulose (CMC) 97 % of control | dose: 45.0 mg/kg/injection, schedule: Q01DX001 (ip), vehicle: carboxymethylcellulose (CMC) 103 % of control | dose: 90.0 mg/kg/injection, schedule: Q01DX001 (ip), vehicle: carboxymethylcellulose (CMC) 105 % of control | dose: 180.0 mg/kg/injection, schedule: Q01DX001 (ip), vehicle: carboxymethylcellulose (CMC) 97 % of control

C=Cc1c2ccccc2cc2c1ccc1ccccc12
inactive: [4] 102 % of control | [5] 106 % of control | dose: 400.0 mg/kg/injection, schedule: Q04DX002 (ip), vehicle: other 109 % of control

Cc1cccc(C)c1NC(=O)c1ccccc1Cl
inactive: [6] 104 % of control | [7] 97 % of control | [8] 104 % of control

Cc1ccc(S(=O)(=O)Nc2ccc(I)c(Cl)c2Cl)cc1
inactive: [6] 101 % of control | [7] 104 % of control | [8] 110 % of control

CC#N.[CH-]=C(C)C.[Cl][Pt][Cl]
inactive: dose: 6.25 mg/kg/injection, schedule: Q04DX003 (ip), vehicle: water 95 % of control | dose: 12.5 mg/kg/injection, schedule: Q04DX003 (ip), vehicle: water 97 % of control | dose: 25.0 mg/kg/injection, schedule: Q04DX003 (ip), vehicle: water 100 % of control | dose: 50.0 mg/kg/injection, schedule: Q04DX003 (ip), vehicle: water 101 % of control

CC(=O)CC(=O)Nc1ccc(Cl)cc1
inactive: [1] 105 % of control | dose: 177.0 mg/kg/injection, schedule: Q04DX002 (ip), vehicle: Klucel (hydroxypropylcellulose) (HPC) 102 % of control | [2] 86 % of control | dose: 266.0 mg/kg/injection, schedule: Q04DX002 (ip), vehicle: Klucel (hydroxypropylcellulose) (HPC) 92 % of control | [3] 95 % of control | dose: 600.0 mg/kg/injection, schedule: Q04DX002 (ip), vehicle: Klucel (hydroxypropylcellulose) (HPC) 92 % of control

Cc1cc(C(=O)O)c(C)n1-c1cccc2ccccc12
inactive: dose: 75.0 mg/kg/injection, schedule: Q04DX003 (ip), vehicle: Klucel (hydroxypropylcellulose) (HPC) 98 % of control | [9] 102 % of control | dose: 150.0 mg/kg/injection, schedule: Q04DX003 (ip), vehicle: Klucel (hydroxypropylcellulose) (HPC) 98 % of control | [10] 108 % of control | dose: 300.0 mg/kg/injection, schedule: Q04DX003 (ip), vehicle: Klucel (hydroxypropylcellulose) (HPC) 97 % of control | [11] 113 % of control

COc1cc(CCNC(=O)Cc2ccc(OCc3ccccc3)cc2)ccc1OCc1ccccc1
inactive: dose: 50.0 mg/kg/injection, schedule: Q01DX009 (ip), vehicle: Klucel (hydroxypropylcellulose) (HPC) 91 % of control | [9] 89 % of control | dose: 100.0 mg/kg/injection, schedule: Q04DX003 (ip), vehicle: other 111 % of control | [10] 89 % of control | dose: 200.0 mg/kg/injection, schedule: Q04DX003 (ip), vehicle: other 105 % of control | dose: 400.0 mg/kg/injection, schedule: Q04DX003 (ip), vehicle: other 94 % of control

Cc1c(Cl)c(C)c(Cl)c(O)c1Cl (tested in a mixture with another compound)
inactive: dose: 25.0 mg/kg/injection, schedule: Q01DX009 (ip), vehicle: saline with Tween-80 97 % of control | dose: 50.0 mg/kg/injection, schedule: Q01DX009 (ip), vehicle: saline with Tween-80 93 % of control | [4] 95 % of control | [5] 90 % of control

Clc1cc(Cl)c(OCC#CI)cc1Cl
inactive: dose: 50.0 mg/kg/injection, schedule: Q01DX001 (ip), vehicle: saline 104 % of control | dose: 100.0 mg/kg/injection, schedule: Q01DX001 (ip), vehicle: saline 98 % of control | dose: 200.0 mg/kg/injection, schedule: Q01DX001 (ip), vehicle: saline 93 % of control | dose: 400.0 mg/kg/injection, schedule: Q01DX001 (ip), vehicle: saline 89 % of control

O=C1c2ccccc2C(=O)N1CCCCCCCCCN1C(=O)c2ccccc2C1=O
inactive: [1] 113 % of control | [2] 90 % of control | [3] 90 % of control

CC(O)c1ccc(-c2ccccc2)cc1 (centres undefined)
inactive: [9] 94 % of control | dose: 100.0 mg/kg/injection, schedule: Q04DX003 (ip), vehicle: Klucel (hydroxypropylcellulose) (HPC) 95 % of control | [10] 97 % of control | dose: 200.0 mg/kg/injection, schedule: Q04DX003 (ip), vehicle: Klucel (hydroxypropylcellulose) (HPC) 101 % of control | [11] 111 % of control | dose: 400.0 mg/kg/injection, schedule: Q04DX003 (ip), vehicle: Klucel (hydroxypropylcellulose) (HPC) 98 % of control

Cc1cc(OCCOC(=O)Nc2ccccc2C(F)(F)F)cc(C)c1Cl
inactive: [1] 89 % of control | [2] 101 % of control | [3] 92 % of control

CC(=O)Nc1ccc(C=Nc2c(N)n(C)c(=O)n(C)c2=O)cc1
inactive: [12] 94 % of control | [13] 96 % of control | [14] 94 % of control | [15] 90 % of control

OC1CCC2C3CC=CC3C12 (centres undefined)
inactive: dose: 75.0 mg/kg/injection, schedule: Q01DX001 (ip), vehicle: other 93 % of control | dose: 150.0 mg/kg/injection, schedule: Q01DX001 (ip), vehicle: other 98 % of control | dose: 300.0 mg/kg/injection, schedule: Q01DX001 (ip), vehicle: other 106 % of control

Cc1ccc(NC(=O)c2cccc(C(=O)Nc3ccc(C)cc3C)c2)c(C)c1
inactive: dose: 12.5 mg/kg/injection, schedule: Q04DX003 (ip), vehicle: saline with Tween-80 98 % of control | dose: 25.0 mg/kg/injection, schedule: Q04DX003 (ip), vehicle: saline with Tween-80 98 % of control | dose: 50.0 mg/kg/injection, schedule: Q04DX003 (ip), vehicle: saline with Tween-80 93 % of control | dose: 200.0 mg/kg/injection, schedule: Q04DX003 (ip), vehicle: saline with Tween-80 87 % of control

Cc1cc(C)cc(Cc2ccc3ccccc3c2)c1
inactive: dose: 50.0 mg/kg/injection, schedule: Q01DX001 (ip), vehicle: Klucel (hydroxypropylcellulose) (HPC) 109 % of control | dose: 100.0 mg/kg/injection, schedule: Q01DX001 (ip), vehicle: Klucel (hydroxypropylcellulose) (HPC) 98 % of control | dose: 200.0 mg/kg/injection, schedule: Q01DX001 (ip), vehicle: Klucel (hydroxypropylcellulose) (HPC) 96 % of control | dose: 400.0 mg/kg/injection, schedule: Q01DX001 (ip), vehicle: Klucel (hydroxypropylcellulose) (HPC) 90 % of control

Brc1ccc2c(c1)nc1n2CCC1
inactive: dose: 100.0 mg/kg/injection, schedule: Q01DX001 (ip), vehicle: acetone 105 % of control | [16] 104 % of control | dose: 200.0 mg/kg/injection, schedule: Q01DX001 (ip), vehicle: acetone 108 % of control | [17] 111 % of control | dose: 400.0 mg/kg/injection, schedule: Q01DX001 (ip), vehicle: acetone 94 % of control | [18] 101 % of control

C=CC(C)C(C)CC (centres undefined)
inactive: [12] 104 % of control | [13] 95 % of control | [14] 93 % of control | [15] 101 % of control

CCOC(=O)NC(=O)CC
inactive: dose: 100.0 mg/kg/injection, schedule: Q01DX009 (ip), vehicle: saline 100 % of control | [16] 98 % of control | dose: 200.0 mg/kg/injection, schedule: Q01DX009 (ip), vehicle: saline 110 % of control | [17] 98 % of control | dose: 400.0 mg/kg/injection, schedule: Q01DX009 (ip), vehicle: saline 110 % of control | [18] 98 % of control

CC(=O)Nc1ccc(Cl)cc1C(=O)c1ccccc1
inactive: [1] 96 % of control | [2] 108 % of control | [3] 96 % of control
